Consider one compound from paper PMC9481570, “A small molecule antagonist of SMN disrupts the interaction between SMN and RNAP II” (Nature Communications, 2022).

Experiment in all cases: Affinity-purification and mass spectrometry (AP-MS) chemical proteomics, all proteins;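 for Difference: 200 µM free competitor with 20 µM biotin probe overnight in lysate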
Holding throughout (assay type): binding

The target of experiment [1] is T1, proteins displaced from immobilized biotin-Cmpd 1 pulldowns (U2OS cell lysate) (Homo sapiens, UniProt O75616).
T1 construct: endogenous in cells; host or cells: U2OS
The settings on record: GN=ERAL1 (O75616).

Experiment [2] deals with T2, proteins displaced from immobilized biotin-Cmpd 1 pulldowns (U2OS cell lysate) (Homo sapiens, UniProt O75683).
T2 construct: endogenous in cells; host or cells: U2OS
The note with it: GN=SURF6 (O75683).

Experiment [3] concerns the target T3, proteins displaced from immobilized biotin-Cmpd 1 pulldowns (U2OS cell lysate) (Homo sapiens, UniProt P05109).
T3 construct: endogenous in cells; host or cells: U2OS
The note with it: GN=S100A8 (P05109).

The target of experiment [4] is T4, proteins displaced from immobilized biotin-Cmpd 1 pulldowns (U2OS cell lysate) (Homo sapiens, UniProt P06748).
T4 construct: endogenous in cells; host or cells: U2OS
The note with it: GN=NPM1 (P06748).

Experiment [5] has as its target T5, proteins displaced from immobilized biotin-Cmpd 1 pulldowns (U2OS cell lysate) (Homo sapiens, UniProt P19367).
T5 construct: endogenous in cells; host or cells: U2OS
The note with it: GN=HK1 (P19367).

Experiment [6] concerns the target T6, proteins displaced from immobilized biotin-Cmpd 1 pulldowns (U2OS cell lysate) (Homo sapiens, UniProt P28370).
T6 construct: endogenous in cells; host or cells: U2OS
The note with it: GN=SMARCA1 (P28370).

Experiment [7] deals with T7, proteins displaced from immobilized biotin-Cmpd 1 pulldowns (U2OS cell lysate) (Homo sapiens, UniProt P50991).
T7 construct: endogenous in cells; host or cells: U2OS
The settings on record: GN=CCT4 (P50991).

For experiment [8], the target named is T8, proteins displaced from immobilized biotin-Cmpd 1 pulldowns (U2OS cell lysate) (Homo sapiens, UniProt P55072).
T8 construct: endogenous in cells; host or cells: U2OS
The note with it: GN=VCP (P55072).

For experiment [9], the target named is T9, proteins displaced from immobilized biotin-Cmpd 1 pulldowns (U2OS cell lysate) (Homo sapiens, UniProt Q9BUF5).
T9 construct: endogenous in cells; host or cells: U2OS
The settings on record: GN=TUBB6 (Q9BUF5).

The target of experiment [10] is T10, proteins displaced from immobilized biotin-Cmpd 1 pulldowns (U2OS cell lysate) (Homo sapiens, UniProt Q9UI42).
T10 construct: endogenous in cells; host or cells: U2OS
The settings on record: GN=CPA4 (Q9UI42).

Several values for one entry are separate records, joined by “and”; a condition that tells them apart may be missing. Identical values can stand only once.

T7 sequence (P50991 whole entry): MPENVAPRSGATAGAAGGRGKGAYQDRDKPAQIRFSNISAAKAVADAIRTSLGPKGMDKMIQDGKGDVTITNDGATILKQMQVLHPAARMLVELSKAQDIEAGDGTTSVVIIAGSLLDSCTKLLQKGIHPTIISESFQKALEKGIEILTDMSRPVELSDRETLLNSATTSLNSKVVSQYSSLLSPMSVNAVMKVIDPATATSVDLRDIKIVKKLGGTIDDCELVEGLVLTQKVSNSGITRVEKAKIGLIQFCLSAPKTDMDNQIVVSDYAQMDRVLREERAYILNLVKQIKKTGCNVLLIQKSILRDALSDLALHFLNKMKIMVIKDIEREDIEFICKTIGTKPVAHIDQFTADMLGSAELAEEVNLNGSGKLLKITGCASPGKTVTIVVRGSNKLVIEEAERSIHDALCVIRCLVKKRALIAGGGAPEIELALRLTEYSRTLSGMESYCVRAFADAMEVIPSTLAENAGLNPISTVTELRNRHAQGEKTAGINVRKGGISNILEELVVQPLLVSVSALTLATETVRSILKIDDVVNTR
T8 sequence (P55072 whole entry): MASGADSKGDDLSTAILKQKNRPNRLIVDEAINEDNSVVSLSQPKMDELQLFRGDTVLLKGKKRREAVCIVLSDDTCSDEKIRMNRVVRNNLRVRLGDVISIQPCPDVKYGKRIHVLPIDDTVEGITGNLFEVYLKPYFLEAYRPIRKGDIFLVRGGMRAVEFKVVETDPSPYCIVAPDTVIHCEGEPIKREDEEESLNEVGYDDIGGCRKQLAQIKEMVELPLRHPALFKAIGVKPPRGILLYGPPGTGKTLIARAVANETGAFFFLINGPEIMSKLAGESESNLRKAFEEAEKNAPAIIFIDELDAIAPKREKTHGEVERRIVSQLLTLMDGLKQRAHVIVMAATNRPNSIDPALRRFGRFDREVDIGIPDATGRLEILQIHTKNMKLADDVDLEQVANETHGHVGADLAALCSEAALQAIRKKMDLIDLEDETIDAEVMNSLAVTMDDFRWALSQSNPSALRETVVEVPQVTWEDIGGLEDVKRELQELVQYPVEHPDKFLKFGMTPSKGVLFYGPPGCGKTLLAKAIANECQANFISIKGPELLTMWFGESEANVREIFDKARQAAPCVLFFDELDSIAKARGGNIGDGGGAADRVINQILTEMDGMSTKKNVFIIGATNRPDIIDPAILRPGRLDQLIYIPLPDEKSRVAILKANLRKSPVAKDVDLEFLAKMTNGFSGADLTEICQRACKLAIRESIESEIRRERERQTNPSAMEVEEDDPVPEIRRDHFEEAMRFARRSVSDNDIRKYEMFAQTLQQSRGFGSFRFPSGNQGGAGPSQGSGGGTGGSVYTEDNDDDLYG
T5 sequence (P19367 whole entry): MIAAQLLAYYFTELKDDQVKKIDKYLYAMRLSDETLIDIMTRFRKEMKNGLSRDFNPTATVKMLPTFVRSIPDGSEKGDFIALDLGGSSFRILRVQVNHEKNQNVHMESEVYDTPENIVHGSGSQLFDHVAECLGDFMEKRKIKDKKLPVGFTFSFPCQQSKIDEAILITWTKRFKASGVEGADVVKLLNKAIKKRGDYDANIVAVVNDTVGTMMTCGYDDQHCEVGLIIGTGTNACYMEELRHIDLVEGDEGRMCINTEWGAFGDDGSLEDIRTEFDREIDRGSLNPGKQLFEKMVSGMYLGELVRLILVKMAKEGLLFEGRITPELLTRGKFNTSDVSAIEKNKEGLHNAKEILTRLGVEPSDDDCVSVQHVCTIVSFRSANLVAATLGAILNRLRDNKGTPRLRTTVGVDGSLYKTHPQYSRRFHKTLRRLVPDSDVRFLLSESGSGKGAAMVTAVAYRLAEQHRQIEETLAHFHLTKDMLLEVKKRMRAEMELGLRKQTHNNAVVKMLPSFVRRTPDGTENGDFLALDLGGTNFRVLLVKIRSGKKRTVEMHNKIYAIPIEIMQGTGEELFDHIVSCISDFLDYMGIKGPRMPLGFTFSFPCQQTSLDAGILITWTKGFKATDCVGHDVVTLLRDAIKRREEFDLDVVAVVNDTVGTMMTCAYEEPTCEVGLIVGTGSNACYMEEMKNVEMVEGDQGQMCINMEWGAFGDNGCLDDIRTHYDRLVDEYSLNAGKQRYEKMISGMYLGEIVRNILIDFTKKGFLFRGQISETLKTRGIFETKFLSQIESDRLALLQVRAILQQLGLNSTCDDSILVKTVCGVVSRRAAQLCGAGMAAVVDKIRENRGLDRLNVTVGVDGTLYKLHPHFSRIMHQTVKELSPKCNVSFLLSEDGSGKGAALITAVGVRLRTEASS
T6 sequence (P28370 whole entry): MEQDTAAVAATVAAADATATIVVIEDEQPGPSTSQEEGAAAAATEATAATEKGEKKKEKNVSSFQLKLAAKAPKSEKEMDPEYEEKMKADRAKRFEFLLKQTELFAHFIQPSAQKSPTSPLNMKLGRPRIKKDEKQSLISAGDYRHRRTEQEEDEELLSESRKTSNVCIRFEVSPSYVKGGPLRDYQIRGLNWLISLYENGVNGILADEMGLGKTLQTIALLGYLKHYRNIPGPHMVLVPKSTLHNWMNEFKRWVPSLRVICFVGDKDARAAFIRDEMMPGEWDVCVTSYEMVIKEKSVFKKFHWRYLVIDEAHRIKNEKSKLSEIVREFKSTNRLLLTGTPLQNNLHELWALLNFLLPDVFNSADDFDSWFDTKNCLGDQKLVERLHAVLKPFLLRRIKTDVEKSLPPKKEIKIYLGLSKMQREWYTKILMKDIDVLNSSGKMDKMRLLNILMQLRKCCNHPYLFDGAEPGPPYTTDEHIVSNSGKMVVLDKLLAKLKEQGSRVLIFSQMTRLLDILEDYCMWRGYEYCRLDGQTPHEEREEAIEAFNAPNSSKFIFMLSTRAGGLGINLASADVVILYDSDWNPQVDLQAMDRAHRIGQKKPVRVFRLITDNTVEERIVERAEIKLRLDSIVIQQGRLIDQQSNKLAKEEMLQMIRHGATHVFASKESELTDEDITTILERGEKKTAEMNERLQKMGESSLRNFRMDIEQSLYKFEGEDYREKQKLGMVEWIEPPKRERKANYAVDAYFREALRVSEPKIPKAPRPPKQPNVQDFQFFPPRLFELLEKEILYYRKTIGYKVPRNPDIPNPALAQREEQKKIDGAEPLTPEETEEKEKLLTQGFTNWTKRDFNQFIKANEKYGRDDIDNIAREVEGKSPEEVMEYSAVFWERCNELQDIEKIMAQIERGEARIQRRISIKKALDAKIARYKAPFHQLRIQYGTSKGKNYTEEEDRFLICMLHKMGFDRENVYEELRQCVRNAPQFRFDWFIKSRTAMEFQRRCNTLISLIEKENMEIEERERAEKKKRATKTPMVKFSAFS
T1 sequence (O75616 44-437): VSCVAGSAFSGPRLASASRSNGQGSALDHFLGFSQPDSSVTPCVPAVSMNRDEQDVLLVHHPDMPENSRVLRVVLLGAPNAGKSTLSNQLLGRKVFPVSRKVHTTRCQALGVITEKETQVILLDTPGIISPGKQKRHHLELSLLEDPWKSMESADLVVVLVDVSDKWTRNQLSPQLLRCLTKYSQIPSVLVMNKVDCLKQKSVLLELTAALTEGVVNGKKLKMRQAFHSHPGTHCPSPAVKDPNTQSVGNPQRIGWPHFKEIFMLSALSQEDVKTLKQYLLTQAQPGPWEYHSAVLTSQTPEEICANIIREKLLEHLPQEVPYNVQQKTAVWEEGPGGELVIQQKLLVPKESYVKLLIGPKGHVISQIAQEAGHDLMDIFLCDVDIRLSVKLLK
T9 sequence (Q9BUF5 whole entry): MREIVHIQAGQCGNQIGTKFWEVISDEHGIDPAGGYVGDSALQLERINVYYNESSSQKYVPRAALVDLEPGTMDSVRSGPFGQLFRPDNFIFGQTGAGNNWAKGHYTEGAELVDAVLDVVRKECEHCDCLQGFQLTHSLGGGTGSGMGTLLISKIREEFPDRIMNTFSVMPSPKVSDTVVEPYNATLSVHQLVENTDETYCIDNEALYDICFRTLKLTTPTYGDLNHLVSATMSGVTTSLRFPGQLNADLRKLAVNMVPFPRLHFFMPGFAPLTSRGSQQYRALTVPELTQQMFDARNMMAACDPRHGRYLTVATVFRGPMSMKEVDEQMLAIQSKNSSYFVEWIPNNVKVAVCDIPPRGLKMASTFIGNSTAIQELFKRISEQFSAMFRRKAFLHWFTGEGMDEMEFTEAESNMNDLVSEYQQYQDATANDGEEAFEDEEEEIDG
T2 sequence (O75683 whole entry): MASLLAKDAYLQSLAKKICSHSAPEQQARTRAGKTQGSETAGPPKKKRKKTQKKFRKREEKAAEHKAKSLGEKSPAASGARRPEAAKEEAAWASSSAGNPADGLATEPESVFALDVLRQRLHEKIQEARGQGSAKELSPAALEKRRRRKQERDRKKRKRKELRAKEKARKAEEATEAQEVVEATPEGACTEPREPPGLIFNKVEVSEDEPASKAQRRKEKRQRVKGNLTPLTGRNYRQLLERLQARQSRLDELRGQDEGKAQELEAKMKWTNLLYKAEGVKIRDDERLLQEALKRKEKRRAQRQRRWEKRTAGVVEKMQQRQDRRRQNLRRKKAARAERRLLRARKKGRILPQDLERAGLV
T10 sequence (Q9UI42 114-421): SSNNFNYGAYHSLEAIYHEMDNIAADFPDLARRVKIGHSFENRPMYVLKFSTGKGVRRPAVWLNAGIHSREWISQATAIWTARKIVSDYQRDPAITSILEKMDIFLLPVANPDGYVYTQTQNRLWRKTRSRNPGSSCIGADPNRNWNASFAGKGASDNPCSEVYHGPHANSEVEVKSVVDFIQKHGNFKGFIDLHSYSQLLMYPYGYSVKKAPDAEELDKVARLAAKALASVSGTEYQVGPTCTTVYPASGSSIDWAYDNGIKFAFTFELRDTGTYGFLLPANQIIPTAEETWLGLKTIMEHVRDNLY
T3 sequence (P05109 whole entry): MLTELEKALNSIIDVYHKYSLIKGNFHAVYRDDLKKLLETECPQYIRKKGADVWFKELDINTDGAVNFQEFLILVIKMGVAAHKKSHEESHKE

With `Cn1c2c(c(=N)c3c1CCC3)CCC2` [Compound 1, 4-methyl-2,3,4,5,6,7-hexahydrodicyclopenta[b,e]pyridin-8(1H)-imine], the Difference in [1] (Cmpd minus DMSO, -LOG(P-value) 0.929321) is reported as 2.334; in experiment [2] (Cmpd minus DMSO, -LOG(P-value) 1.38004), 2.68; in experiment [3] (Cmpd minus DMSO, -LOG(P-value) 1.46412), -2.055; in experiment [4] (Cmpd minus DMSO, -LOG(P-value) 0.76043), -0.4033; in experiment [5] (Cmpd minus DMSO, -LOG(P-value) 0.855582), 0.9514; in experiment [6] (Cmpd minus DMSO, -LOG(P-value) 1.24318) it was 1.73. The Difference in [7] (Cmpd minus DMSO, -LOG(P-value) 0.713793) is reported as 0.7229; in experiment [8] (Cmpd minus DMSO, -LOG(P-value) 1.20929) it was 2.227; in [9] (Cmpd minus DMSO, -LOG(P-value) 2.60513), 3.82; in experiment [10] (Cmpd minus DMSO, -LOG(P-value) 1.07291), -1.567. Also, the “iBAQ Cmpd” value in [1] (replicates 1-3) was 17.6381 and 15.7018 and 17.9385; in [2] (replicates 1-3), 19.6513 and 20.3325 and 21.9506; in experiment [3] (replicates 1-3) it was 21.5375 and 20.6129 and 20.1927; in experiment [4] (replicates 1-3) it was 27.3171 and 27.18 and 26.7127; in [5] (replicates 1-3), 18.5229 and 17.0452 and 17.0803; in [6] (replicates 1-3), 17.0232 and 15.8844 and 17.1364. Besides, the “iBAQ Cmpd” value in experiment [7] (replicates 1-3) is 21.0359 and 20.6692 and 20.6092; in experiment [8] (replicates 1-3), 18.6461 and 18.1931 and 16.8577; in experiment [9] (replicates 1-3) it was 19.1705 and 17.8309 and 17.4529; in experiment [10] (replicates 1-3) it was 17.2042 and 16.9875 and 16.0895.
